Data set [1] has as its system Spodoptera littoralis. The data set is described as follows: Systemic Insecticide Test for Spodoptera littoralis (Example B9). Format: in vivo. Conditions: for Death rate (%) after 4 days: 1st instar larvae on cut leaves, one replicate. The protocol: Four day old maize seedlings (Zea mais, variety Stoneville) are placed individual in vials containing 24 ml water into which the chemical is diluted at the prescribed concentrations (12.5, 3 and 0.8 ppm). Seedlings are allowed to grow for six days. Subsequently leaves are cut and placed in a Petri dish (3.5 cm diameter), inoculated with twelve to fifteen 1st instar S. littoralis larvae and incubated for four days in a growth chamber (25° C., 50% r.h., 18:6 L:D photo period). Number of alive insects are counted and percentage of dead calculated. Tests were conducted with one replicate.

The subject of another data set is Diabrotica balteata. As to the kind of experiment: Activity against Diabrotica balteata (Example B2). The class given is in vivo. Conditions: 144 h, maize seedlings, spray 400 ppm, 2nd instar larvae, 6 days, read-out: percentage reduction in the population (% activity). As for the experimental part: Maize seedlings are sprayed with an aqueous emulsion spray mixture comprising 400 ppm of active ingredient and, after the spray coating has dried on, populated with 10 larvae (2nd instar) of Diabrotica balteata and introduced into a plastic container. 6 days later, the percentage reduction in the population (% activity) is determined by comparing the number of dead larvae between the treated and untreated plants.

For a further data set, the system named is Heliothis virescens. As to the kind of experiment: Activity against Heliothis virescens (foliar application) (Example B3). Format: in vivo. Conditions: 144 h, young soya plants, spray 400 ppm, 1st instar caterpillars, 6 days, read-out: percentage reduction in the population and in the feeding damage (% activity). The protocol:
(§1) Young soya plants are sprayed with an aqueous emulsion spray mixture comprising 400 ppm of active ingredient and, after the spray coating has dried on, populated with 10 caterpillars (1st instar) of Heliothis virescens and introduced into a plastic container. 6 days later, the percentage reduction in the population and in the feeding damage (% activity) are determined by comparing the number of dead caterpillars and the feeding damage between the treated and untreated plants.

For another data set, the system named is Plutella xylostella. The data set is described as follows: Activity against Plutella xylostella (Example B7). The class given is in vivo. The following applies: 72 h, young cabbage plants, spray 400 ppm, 3rd instar caterpillars, 3 days, read-out: percentage reduction in the population and in the feeding damage (% activity). The protocol: Young cabbage plants are sprayed with an aqueous emulsion spray mixture comprising 400 ppm of active ingredient and, after the spray coating has dried on, populated with 10 caterpillars (3rd instar) of Plutella xylostella and introduced into a plastic container. 3 days later, the percentage reduction in the population and in the feeding damage (% activity) are determined by comparing the number of dead caterpillars and the feeding damage between the treated and untreated plants.

Data set [2] deals with Spodoptera littoralis. The data set is described as follows: Activity against Spodoptera littoralis (Example B8). Format: in vivo. Conditions: 72 h, young soya plants, spray 400 ppm, 1st instar caterpillars, 3 days, read-out: percentage reduction in the population and in the feeding damage (% activity). As for the experimental part: as §1, with “Spodoptera littoralis” for “Heliothis virescens”, “3” for “6”, “plants. In this test, compounds listed in the Tables above show good activity. In particular, the compounds T.64.1.136, T1.1.136, T64.1.1 and T1.1.1 have an activity of over 80%.” for “plants.”

Setting [3] is: 0.8 ppm in water of maize seedlings.
[4] abbreviates: 3 ppm in water of maize seedlings.
Where [5] appears, read: 12.5 ppm in water of maize seedlings.

As a reminder, the melting point is the temperature of the solid-liquid transition.

For `Cc1cc(C(F)(C(F)(F)F)C(F)(F)F)ccc1NC(=O)c1cccc(C)c1C(=O)NC(C)(C)CS(C)(=O)=O` [Comp. 124, reference compound], the “Death rate (%) after 4 days” value in the data set with Spodoptera littoralis [1] (setting [3]) was found to be 0%; in the data set with Spodoptera littoralis [1] (setting [4]), 20%; in the data set on Spodoptera littoralis [1] (setting [5]) it was 90%.

For the molecule `Cc1cc(C(F)(C(F)(F)F)C(F)(F)F)ccc1NC(=O)c1cccc(I)c1C(=O)NC(C)(C)CS(C)(=N)=O` (centres unmarked) [Compound T1.1.1], the inhibition at 400 ppm in the data set with Diabrotica balteata, in the data set with Heliothis virescens, in the data set on Plutella xylostella and with Spodoptera littoralis [2] was over 80% throughout. Also, the “Death rate (%) after 4 days” value with Spodoptera littoralis [1] (setting [3]), with Spodoptera littoralis [1] (setting [4]) and with Spodoptera littoralis [1] (setting [5]) was 100% in each case. For the same molecule, the “insecticidal action on Spodoptera littoralis compared with the compound from the state of the art” value in the data set on Spodoptera littoralis [1] (comparison with Comp. 124, Table B9) is on record as “substantially better insecticidal action”.

The molecule `Cc1cc(C(F)(C(F)(F)F)C(F)(F)F)ccc1NC(=O)c1cccc(Cl)c1C(=O)NC(C)(C)CS(C)(=N)=O` (centres unmarked) [Compound T1.1.136] came in with a melting point of 87 to 88 °C. The inhibition at 400 ppm in the data set with Heliothis virescens is over 80%. Moreover, in the data set with Plutella xylostella, the inhibition at 400 ppm was over 80%. Also, the inhibition at 400 ppm with Spodoptera littoralis [2] was over 80%.

Turning to `Cc1cc(C(F)(C(F)(F)F)C(F)(F)F)ccc1NC(=O)c1cccc(I)c1C(=O)NC(C)(C)CS(C)(=O)=NC(=O)OC(C)(C)C` (centres unmarked) [Compound T55.1.1], the inhibition at 400 ppm in the data set with Heliothis virescens and in the data set with Plutella xylostella was over 80% throughout.

Molecule `Cc1cc(C(F)(C(F)(F)F)C(F)(F)F)ccc1NC(=O)c1cccc(Cl)c1C(=O)NC(C)(C)CS(C)(=O)=NC(=O)OC(C)(C)C` (centres unmarked) [Compound T55.1.136] gave a melting point of 113 to 114 °C. The inhibition at 400 ppm in the data set with Heliothis virescens was over 80%. The inhibition at 400 ppm in the data set with Plutella xylostella was over 80%.

`Cc1cc(C(F)(C(F)(F)F)C(F)(F)F)ccc1NC(=O)c1cccc(I)c1C(=O)NC(C)(C)C/S(C)=N/C(=O)OC(C)(C)C` (centres unmarked) [Compound T64.1.1]: the melting point lay within 125 to 126 °C. Also, the inhibition at 400 ppm in the data set on Diabrotica balteata was over 80%. In addition, the inhibition at 400 ppm in the data set on Heliothis virescens was over 80%. Moreover, the inhibition at 400 ppm in the data set on Plutella xylostella was over 80%. Moreover, in the data set on Spodoptera littoralis [2], the inhibition at 400 ppm is over 80%.

With `Cc1cc(C(F)(C(F)(F)F)C(F)(F)F)ccc1NC(=O)c1cccc(Cl)c1C(=O)NC(C)(C)C/S(C)=N/C(=O)OC(C)(C)C` (centres unmarked) [Compound T64.1.136], the inhibition at 400 ppm in the data set on Diabrotica balteata, in the data set on Heliothis virescens, with Plutella xylostella and in the data set on Spodoptera littoralis [2] was over 80% in each case.
